Results from US20190134054A1, “ASSOCIATION OF ANTAGONISTS OF THE VASOPRESSIN RECEPTOR AND CALCIMIMETICS, COMPOSITION AND USE THEREOF FOR THE TREATMENT OF POLYCYSTIC KIDNEY” (UNIVERSITA' DEGLI STUDI DI BARI ALDO MORO, priority 2017, published 2019).
“Also recorded” adds a separate entry of the source.

Tests used:
[1] = test system: intracellular calcium levels; assay: Intracellular calcium levels after tolvaptan; assay type: cell-based; details: treatment with Tolvaptan; CTR=67.06±2.6 nM, P<0.0001
Experimental: The treatment with Tolvaptan determines an increase of the intracellular calcium levels (TLV=99.6±4.1 nM; CTR=67.06±2.6 nM, P<0.0001).

V2 receptor = target: T1, V2 receptor (Canis lupus familiaris, UniProt O77808); assay: dDAVP-induced intracellular cAMP levels (1/netFRET) in MDCK cells; assay type: cell-based, canine; details: dDAVP+TLV vs. dDAVP and CTR
T1 construct: canine kidney cells MDCK endogenously expressing the V2 receptor; endogenous in cells; host or cells: MDCK (canine kidney cells)
Source text: The effects of the antagonists of the vasopressin receptor on the concentration of intracellular cAMP have been studied in the canine kidney cells MDCK endogenously expressing the V2 receptor.
Such a reduction of the cAMP levels has been detected through 1/netFRET.
Thus, the treatment with Tolvaptan leads to a reduction of the intracellular cAMP levels. The cAMP levels have been measured through 1/netFRET.

ciPTEC-PC1Pt cells [2] = assay: Intracellular cAMP levels after tecalcet (FRET), ciPTEC-PC1Pt cells; assay type: cell-based, human; details: 10 μM, 1/netFRET
Source text: (§1) The experiments described from Example 1 to Example 5 have been carried out on i) ciPTEC human kidney cells of the proximal tubule isolated from healthy subjects (ciPTECwt), ii) on the same cells silenced for the gene encoding the polycystin 1 (ciPTE-PC1KO) and iii) on ciPTEC cells isolated from patients affected by ADPKD (ciPTEC-PC1Pt).
(§2) Such cAMP levels have been measured through FRET.
(§3) The cAMP levels have been measured through 1/netFRET.

mTOR signaling pathway [3] = assay: mTOR signaling: S6 ribosomal protein phosphorylation, ciPTEC-PC1KO cells; assay type: cell-based, human; details: 10 μM
Source text: as §1
(§4) In the present example, the activity of mTOR has been studied by detecting the phosphorylation levels of the S6 ribosomal protein.
(§5) By treating the aforementioned cells with the calciomimetic tecalcet at the concentration of 10 μM, the activity of mTOR is reduced, thus decreasing the S6 phosphorylation.

ciPTEC-PC1KO cells [4] = assay: Intracellular cAMP levels after tecalcet (FRET), ciPTEC-PC1KO cells; assay type: cell-based, human; details: 10 μM, 1/netFRET
Source text: as §1, §2, §3

mTOR signaling pathway [5] = assay: mTOR signaling: S6 ribosomal protein phosphorylation, ciPTEC-PC1Pt cells; assay type: cell-based, human; details: 10 μM
Source text: as §1, §4, §5

ciPTEC-PC1Pt cells [6] = assay: Intracellular calcium levels after tecalcet (Fura 2), ciPTEC-PC1Pt cells; assay type: cell-based, human; details: 10 μM, ciPTEC-PC1Pt cells (ADPKD patients), n=30
Experimental: as §1
(§6) Three types of the aforementioned cellular lines have been treated with 10 μM calciomimetic tecalcet, and the result is that the ciPTEC-PC1Pt cells, isolated from patients suffering from the polycystic kidney disease, respond similarly to the ciPTECwt cells to the stimulation with the calciomimetic, thus leading to an increase of intracellular calcium levels (FIG. 4). Such intracellular calcium levels, in the present example, have been detected thanks to the colorant Fura 2 that is sensitive to calcium.
(§7) The ciPTEC-PC1Pt cells respond similarly to the ciPTECwt cells to the stimulation with NPS-R568 calciomimetic, also called tecalcet, at a concentration of 10 μM. […] The intracellular calcium levels have been measured through the colorant Fura 2 that is sensitive to calcium.

ciPTEC-PC1KO cells [7] = assay: Intracellular calcium levels after tecalcet (Fura 2), ciPTEC-PC1KO cells; assay type: cell-based, human; details: 10 μM, n=47
Experimental: as §1, §6, §7

ciPTECwt cells = assay: Intracellular calcium levels after tecalcet (Fura 2), ciPTECwt cells; assay type: cell-based, human; details: 10 μM, n=40
Experimental: as §1, §6, §7

T1 sequence (O77808 whole entry): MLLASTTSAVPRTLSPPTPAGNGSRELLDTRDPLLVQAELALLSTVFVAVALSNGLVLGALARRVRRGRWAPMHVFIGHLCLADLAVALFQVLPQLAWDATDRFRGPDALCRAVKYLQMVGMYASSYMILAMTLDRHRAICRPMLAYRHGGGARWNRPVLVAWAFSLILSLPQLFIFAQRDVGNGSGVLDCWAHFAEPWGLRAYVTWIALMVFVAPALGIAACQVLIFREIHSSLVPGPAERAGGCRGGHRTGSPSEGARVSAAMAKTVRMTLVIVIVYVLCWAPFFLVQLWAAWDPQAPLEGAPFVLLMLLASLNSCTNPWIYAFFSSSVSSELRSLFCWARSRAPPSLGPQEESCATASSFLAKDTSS

cAMP levels induced by vasopressin (dDAVP) (V2 receptor)	SMILES	intracellular calcium levels [1] [nM]	basal intracellular cAMP levels (ciPTEC-PC1Pt cells [2])	S6 phosphorylation levels (mTOR activity) (mTOR signaling pathway [3])	basal intracellular cAMP levels (ciPTEC-PC1KO cells [4])	S6 phosphorylation levels (mTOR activity) (mTOR signaling pathway [5])	intracellular calcium levels, response vs. ATP 100% (ciPTEC-PC1Pt cells [6]) [%]	intracellular calcium levels, response vs. ATP 100% (ciPTEC-PC1KO cells [7]) [%]	intracellular calcium levels, response vs. ATP 100% (ciPTECwt cells) [%]
comparable to those of the control	Cc1ccccc1C(=O)Nc1ccc(C(=O)N2CCCC(O)c3cc(Cl)ccc32)c(C)c1 (stereo not drawn) [Tolvaptan]	99.6 ± 4.1	–	–	–	–	–	–	–
–	COc1cccc([C@@H](C)NCCCc2ccccc2Cl)c1 [tecalcet]	–	reduces the basal cAMP levels	comparable levels to those observed in the ciPTECwt cells; also recorded: reduces the phosphorylation of S6	reduces the basal cAMP levels	reduces the phosphorylation of S6	29.51±3.93	24.32±2.59	90.68±2.47
